Drawing on US20250092016A1, “COMPOUNDS AND COMPOSITIONS FOR THE TREATMENT OF CORONAVIRAL RELATED DISEASES” (priority 2021, published 2025), this text covers IC50 for three compounds.

pIC50: −log10 of the molar value.

Experiment [1] concerns the target T1, SARS-CoV-2 main protease (M^pro) (Severe acute respiratory syndrome coronavirus 2, UniProt P0DTD1). The experiment in a line: Rapid-Fire MS Biochemical Assay measuring Mpro activity (5 nM Mpro). As to conditions: Table 1B, Mpro inhibition, 5 μM substrate peptide, 120 min, read-out: Rapid-Fire Assay IC50.
The target in experiment [2] is T1, SARS-CoV-2 main protease (M^pro). Description: Rapid-Fire MS Biochemical Assay measuring Mpro activity (12.5 nM Mpro). As to conditions: Table 1A, Mpro inhibition, 5 μM substrate peptide, 30 min.

Broadly, the pIC50 is −log10 of the IC50, conventionally taken in molar units.

As for `N#CC1CN(c2ccc(C(F)(F)F)cc2)C(=O)N1c1cncc2ccccc12` (racemic) [Compound 4, 3-(isoquinolin-4-yl)-2-oxo-1-(4-(trifluoromethyl)phenyl)imidazolidine-4-carbonitrile], the figures for the pIC50 in experiment [1] and in experiment [2] were > 7.70 and > 8.30, respectively.

As to `N#CC1CN(c2ccc(F)cn2)C(=O)N1c1cncc2ccccc12` (stereo not drawn) [Compound 8, 1-(5-fluoropyridin-2-yl)-3-(isoquinolin-4-yl)-2-oxoimidazolidine-4-carbonitrile], the pIC50 in experiment [1] is 6.70 to 7.70; in experiment [2], 7.11.

As to `N#C[C@H]1CN(c2cccc(Cl)c2)C(=O)N1c1cncc2ccccc12` (single isomer, unassigned) [Compound 2a], the pIC50 is > 7.70 in experiment [1] and > 8.30 in experiment [2].
